According to PubChem BioAssay (NCI):
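1) Cells in 96-well plates. 2) Compound, 48 h, 5 concentrations. 3) Linear interpolation between surrounding doses. 4) Unreached endpoint = highest concentration. TGI marks complete inhibition of growth.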

Experiments:
Test in all cases: NCI-60 cell line screen, 48 h
[1] = tested on: HOP-92 NSCLC
[2] = tested on: HCT-116 colon
[3] = tested on: A549 NSCLC
[4] = tested on: SK-MEL-5 melanoma
[5] = tested on: SNB-78 CNS
[6] = tested on: OVCAR-4 ovarian
[7] = tested on: SNB-19 CNS
[8] = tested on: OVCAR-5 ovarian
[9] = tested on: SK-MEL-28 melanoma
[10] = tested on: HCC-2998 colon
[11] = tested on: SK-MEL-2 melanoma
[12] = tested on: NCI-H226 lung
[13] = tested on: DMS 273 small cell lung
[14] = tested on: LOX IMVI melanoma
[15] = tested on: XF 498 CNS
[16] = tested on: SF-539 CNS
[17] = tested on: COLO 205 colon
[18] = tested on: SF-295 CNS
[19] = tested on: KM20L2 colon
[20] = tested on: MALME-3M melanoma
[21] = tested on: DLD-1 colon
[22] = tested on: M14 melanoma
[23] = tested on: HOP-18 NSCLC
[24] = tested on: HL-60(TB) leukemia
[25] = tested on: DMS 114 small cell lung
[26] = tested on: A498 renal
[27] = tested on: RPMI-8226 leukemia
[28] = tested on: CAKI-1 renal
[29] = tested on: UACC-257 melanoma
[30] = tested on: NCI-H23 lung
[31] = tested on: LXFL 529 NSCLC
[32] = tested on: U251 CNS
[33] = tested on: IGROV1 ovarian
[34] = tested on: EKVX NSCLC
[35] = tested on: UO-31 renal
[36] = tested on: NCI-H460 lung
[37] = tested on: SR leukemia
[38] = tested on: SF-268 CNS
[39] = tested on: KM12 colon
[40] = tested on: SW-620 colon
[41] = tested on: SNB-75 CNS
[42] = tested on: TK-10 renal
[43] = tested on: SN12C renal
[44] = tested on: OVCAR-8 ovarian
[45] = tested on: RXF 393 renal
[46] = tested on: HCT-15 colon
[47] = tested on: HT29 colon
[48] = tested on: ACHN renal
[49] = tested on: UACC-62 melanoma
[50] = tested on: HOP-62 NSCLC
[51] = tested on: K-562 leukemia
[52] = tested on: NCI-H522 lung
[53] = tested on: M19-MEL melanoma
[54] = tested on: CCRF-CEM leukemia
[55] = tested on: MOLT-4 leukemia
[56] = tested on: SK-OV-3 ovarian
[57] = tested on: 786-0 renal
[58] = tested on: OVCAR-3 ovarian

COc1ccc(-c2cc(N3CCN(c4ccc(Cl)cc4)CC3)c(C#N)c(=O)o2)cc1
TGI [1]: > 100 µM | TGI [2]: 32.7 µM | TGI [3]: 32.3 µM | TGI [4]: 31.3 µM | TGI [5]: 34.2 µM | TGI [6]: 5.07 µM | TGI [7]: 23.8 µM | TGI [8]: > 100 µM | TGI [9]: 23.3 µM | TGI [10]: > 100 µM | TGI [11]: 45.3 µM | TGI [12]: 7.57 µM | TGI [13]: 34.4 µM | TGI [14]: > 100 µM | TGI [15]: 7.76 µM | TGI [16]: 14.6 µM | TGI [17]: > 100 µM | TGI [18]: 16.4 µM | TGI [19]: > 100 µM | TGI [20]: 22.3 µM | TGI [21]: > 100 µM | TGI [22]: > 100 µM | TGI [23]: 44.3 µM | TGI [24]: > 100 µM | TGI [25]: 25.6 µM | TGI [26]: 49.4 µM | TGI [27]: 87.9 µM | TGI [28]: 34.2 µM | TGI [29]: 73.1 µM | TGI [30]: 88.1 µM | TGI [31]: 70.5 µM | TGI [32]: 58.2 µM | TGI [33]: 42.4 µM | TGI [34]: 41.7 µM | TGI [35]: 30.5 µM | TGI [36]: 28.9 µM | TGI [37]: > 100 µM | TGI [38]: 33.5 µM | TGI [39]: > 100 µM | TGI [40]: > 100 µM | TGI [41]: 10.8 µM | TGI [42]: 37.7 µM | TGI [43]: > 100 µM | TGI [44]: 19.1 µM | TGI [45]: 17.3 µM | TGI [46]: > 100 µM | TGI [47]: > 100 µM | TGI [48]: 35.2 µM

CC(=O)OCC1OC(N2C(=O)[C@@H](Oc3ccccc3)[C@H]2/C=C/c2ccccc2)C(OC(C)=O)C(OC(C)=O)C1OC(C)=O (stereo partly drawn)
TGI [1]: > 100 µM | TGI [49]: > 100 µM | TGI [2]: > 100 µM | TGI [50]: > 100 µM | TGI [3]: > 100 µM | TGI [4]: > 100 µM | TGI [5]: > 100 µM | TGI [6]: > 100 µM | TGI [7]: > 100 µM | TGI [8]: > 100 µM | TGI [9]: > 100 µM | TGI [10]: > 100 µM | TGI [11]: > 100 µM | TGI [12]: > 100 µM | TGI [13]: > 100 µM | TGI [14]: > 100 µM | TGI [15]: > 100 µM | TGI [16]: > 100 µM | TGI [17]: > 100 µM | TGI [51]: > 100 µM | TGI [18]: > 100 µM | TGI [52]: > 100 µM | TGI [19]: > 100 µM | TGI [53]: > 100 µM | TGI [20]: > 100 µM | TGI [54]: > 100 µM | TGI [21]: > 100 µM | TGI [22]: > 100 µM | TGI [24]: > 100 µM | TGI [25]: > 100 µM | TGI [26]: > 100 µM | TGI [27]: > 100 µM | TGI [29]: > 100 µM | TGI [30]: > 100 µM | TGI [31]: > 100 µM | TGI [55]: > 100 µM | TGI [32]: > 100 µM | TGI [33]: > 100 µM | TGI [34]: > 100 µM | TGI [35]: > 100 µM | TGI [36]: > 100 µM | TGI [37]: > 100 µM | TGI [38]: > 100 µM | TGI [40]: > 100 µM | TGI [56]: > 100 µM | TGI [41]: 90 µM | TGI [42]: > 100 µM | TGI [43]: > 100 µM | TGI [44]: > 100 µM | TGI [57]: > 100 µM | TGI [45]: > 100 µM | TGI [58]: > 100 µM | TGI [46]: > 100 µM | TGI [47]: > 100 µM | TGI [48]: > 100 µM
